The subject of one experiment is IFN-α.
Assay: not given
To be noted: fold less potent than corresponding purine-8-one compound; cited from earlier work.
human TLR7, sequence (Q9NYK1 27-1049): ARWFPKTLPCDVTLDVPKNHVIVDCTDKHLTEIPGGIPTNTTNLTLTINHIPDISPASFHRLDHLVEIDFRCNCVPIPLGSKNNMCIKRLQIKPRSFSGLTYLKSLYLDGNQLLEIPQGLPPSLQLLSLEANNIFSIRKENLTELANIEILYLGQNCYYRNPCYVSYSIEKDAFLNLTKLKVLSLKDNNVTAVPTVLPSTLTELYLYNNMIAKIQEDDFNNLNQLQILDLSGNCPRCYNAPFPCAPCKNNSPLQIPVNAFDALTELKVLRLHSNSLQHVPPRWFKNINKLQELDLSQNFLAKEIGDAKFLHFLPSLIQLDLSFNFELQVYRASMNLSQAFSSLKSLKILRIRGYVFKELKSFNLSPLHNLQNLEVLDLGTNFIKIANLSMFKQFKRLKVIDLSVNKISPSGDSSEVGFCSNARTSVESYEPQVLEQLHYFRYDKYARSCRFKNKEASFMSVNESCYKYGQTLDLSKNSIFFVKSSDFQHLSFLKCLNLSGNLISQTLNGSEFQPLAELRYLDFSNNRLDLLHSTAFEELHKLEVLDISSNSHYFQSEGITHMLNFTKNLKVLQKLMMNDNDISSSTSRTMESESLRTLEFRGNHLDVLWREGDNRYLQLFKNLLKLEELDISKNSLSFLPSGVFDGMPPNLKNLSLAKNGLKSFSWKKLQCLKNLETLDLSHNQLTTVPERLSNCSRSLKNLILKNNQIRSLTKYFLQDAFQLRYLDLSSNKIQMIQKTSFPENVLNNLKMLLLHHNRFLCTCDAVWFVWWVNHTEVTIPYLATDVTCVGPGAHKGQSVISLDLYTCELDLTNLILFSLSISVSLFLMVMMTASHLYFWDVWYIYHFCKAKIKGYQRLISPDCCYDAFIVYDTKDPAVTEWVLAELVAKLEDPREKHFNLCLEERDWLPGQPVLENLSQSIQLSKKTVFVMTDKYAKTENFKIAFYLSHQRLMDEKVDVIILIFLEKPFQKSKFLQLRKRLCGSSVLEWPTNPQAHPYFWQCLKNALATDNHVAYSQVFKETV
Take `CCCCOc1nc(N)c2c(n1)N(Cc1cccc(CN3CCCC3)c1)CC(=O)N2` [Vesatolimod, vesatolimod]: the “potency less than that of the corresponding purine-8-one compound, as measured by IFN-α induction” value is 100 ×.

The next experiment deals with human TLR7 (Homo sapiens (Human), UniProt Q9NYK1). The experiment can be described thus: HEK-Blue TLR7 reporter assay (TLR7 agonist activity). To be noted: HEK-Blue TLR7 cells, SEAP reporter, 18 h treatment; read-out: TLR7 Agonism (EC50). In kind it is cell-based. How it is done:
This example describes a method for assaying TLR7 agonist activity of the compounds disclosed in this specification.
HEK-Blue™ TLR7 cells were added to each well of a 384-well tissue-culture plate (15,000 cells per well) and incubated 16-18 h at 37° C., 5% CO2. Compounds (100 nl) were dispensed into wells containing the HEK-Blue™ TLR cells and the treated cells were incubated at 37° C., 5% CO2. After 18 h treatment ten microliters of freshly-prepared Quanti-Blue™ reagent (Invivogen) was added to each well, incubated for 30 min (37° C., 5% CO2) and SEAP levels measured using an Envision plate reader (OD=620 nm).
With `CCCCOc1nc(N)c2nc(O)n(Cc3cccc(Oc4cccc(CNC5CCOCC5)c4)c3)c2n1` [IIa-04], the EC50 worked out at 113 nM.
Same read-out and setting: with `CCCCOc1nc(N)c2nc(O)n(Cc3ccc(Oc4ccc(CNC)cc4)cc3)c2n1` [Ia-02] the figure was 1.3 nM; with `CCCCOc1nc(N)c2nc(O)n(Cc3ccc(Oc4ccc(CNCCS(C)(=O)=O)cc4)c(F)c3)c2n1` [Ie-07], 1.71 nM.
Regarding `CCCCOc1nc(N)c2nc(O)n(Cc3ccc(Oc4ccc(CNCCO)cc4)nc3)c2n1` [Ib-06], the EC50 was determined as 0.91 nM.
Still for that read-out and setting: with `CCCCOc1nc(N)c2nc(O)n(Cc3ccc(Oc4ccc(CNCCOC)cc4)cc3)c2n1` [Ia-07] the figure was 1.3 nM; with `CCCCOc1nc(N)c2nc(O)n(Cc3ccc(Oc4cccc(CNCCO)n4)cc3)c2n1` [Ic-05], 0.871 nM.
On the same count and under the same terms, with `CCCCOc1nc(N)c2nc(O)n(Cc3ccc(Oc4ccc(CO)cc4)cc3)c2n1` [Ia-01] the figure was 14 nM; with `CCCCOc1nc(N)c2nc(O)n(Cc3ccc(Oc4ccc(CNCCOC)cc4)nc3)c2n1` [Ib-07], 0.62 nM.
As for `CCCCOc1nc(N)c2nc(O)n(Cc3ccc(Oc4cccc(CNCCOC)n4)cc3)c2n1` [Ic-06], the EC50 was found to be 2.82 nM.
Same read-out and setting: with `CCCCOc1nc(N)c2nc(O)n(Cc3cccc(Oc4cccc(CNCc5ccncc5)c4)c3)c2n1` [IIa-11] the figure was 431 nM; with `CCCCOc1nc(N)c2nc(O)n(Cc3ccc(Oc4ccc(CNC5CC5)cc4)nc3)c2n1` [Ib-17], 0.83 nM.

For another experiment, the system named is interleukin 6 (IL-6). Description: Interleukin 6 induction assay in human whole blood. In kind it is cell-based. To be noted: 37° C. for 20 h, AlphaLISA, read-out: IL6 Induction (EC50). The procedure: This example describes a method for assaying interleukin 6 induction by compounds disclosed in this specification.
Compounds diluted in DMSO were transferred to individual wells of a Matrix Technologies clear, V-bottom 384-well plate using ECHO acoustic liquid handling technology (25 nL per well). Human whole-blood samples (25 uL) were added to each well using a CyBio FeliX liquid handling instrument. The plate was shaken on a plate shaker for three min before incubating the reaction mixtures at 37° C. for 20 h. Basel RPMI 1640 medium (supplemented with L-glutamine) was then added to each well (25 uL per well) prior to liberating plasma from each sample by centrifugation (450×g, 5 min, ambient temperature). Treated plasma samples (3 uL) were subsequently transferred to individual wells of a white, shallow, 384-well ProxiPlate (Perkin Elmer) using the FeliX liquid handling instrument and their interleukin 6 levels were measured using AlphaLISA technology as described by the manufacturer, PerkinElmer. Data analyses software was used to determine compound EC50 values where the baseline was established using average DMSO values and 100% induction established using reference compound values at the highest concentration tested. EC50's can be determined with software such as Graphpad Prism™.
Regarding `CCCCOc1nc(N)c2nc(O)n(Cc3ccc(Oc4cccc(CNCCC#N)n4)cc3)c2n1` [Ic-07], the half-maximal effective concentration (EC50) is 133 nM.
Consider `CCCCOc1nc(N)c2nc(O)n(Cc3ccc(Oc4ccc(CNCC(F)F)cc4)c(F)c3)c2n1` [Ie-04], for which the 50% effective concentration (EC50) is 460 nM.
The same measure, in the same setting: then `CCCCOc1nc(N)c2nc(O)n(Cc3ccc(Oc4cccc(CNC5CCC5)n4)cc3)c2n1` [Ic-02], with 16.1 nM; and `CCCCOc1nc(N)c2nc(O)n(Cc3ccc(Oc4ccc(CNCCO)cc4)c(F)c3)c2n1` [Ie-06], with 29 nM.
Still for that read-out and setting: with `CCCCOc1nc(N)c2nc(O)n(Cc3ccc(Oc4ccc(CNC5COC5)cc4)nc3)c2n1` [Ib-05] the figure was 9.57 nM; with `CCCCOc1nc(N)c2nc(O)n(Cc3ccc(Oc4ccc(CNCCS(C)(=O)=O)cc4)c(F)c3)c2n1` [Ie-07], 130 nM; with `CCCCOc1nc(N)c2nc(O)n(Cc3ccc(Oc4ccc(CNCC(C)C)cc4)c(F)c3)c2n1` [Ie-01], 26 nM.
Same read-out and setting: with `CCCCOc1nc(N)c2nc(O)n(Cc3ccc(Oc4ccc(CNCCC#N)cc4)nc3)c2n1` [Ib-16] the figure was 84.8 nM; with `CCCCOc1nc(N)c2nc(O)n(Cc3ccc(Oc4ccc(CNCCO)cc4)nc3)c2n1` [Ib-06], 10.7 nM.
`CCCCOc1nc(N)c2nc(O)n(Cc3ccc(Oc4ccc(CNC5CCC5)cc4)cc3)c2n1` [Ia-04]: the EC50 amounted to 10.4 nM.
On the same count and under the same terms, then `CCCCOc1nc(N)c2nc(O)n(Cc3ccc(Oc4ccc(CN5CCC5)cc4)c(F)c3)c2n1` [Ie-03], with 19 nM.
Same read-out and setting: with `CCCCOc1nc(N)c2nc(O)n(Cc3ccc(Oc4ccc(CNC5CCOCC5)cc4)c(F)c3)c2n1` [Ie-08] the figure was 7.6 nM; with `CCCCOc1nc(N)c2nc(O)n(Cc3ccc(Oc4ccc(CNCC5CC5)cc4)nc3)c2n1` [Ib-15], 64.7 nM; with `CCCCOc1nc(N)c2nc(O)n(Cc3ccc(Oc4ccc(CNCC(C)C)nc4)nc3)c2n1` [Id-01], 28 nM.
With `CCCCOc1nc(N)c2nc(O)n(Cc3ccc(Oc4ccc(CNCCOC)cc4)cc3)c2n1` [Ia-07], the EC50 was 6.62 nM.
Still for that read-out and setting: then `CCCCOc1nc(N)c2nc(O)n(Cc3ccc(Oc4ccc(CNCCO)cc4)cc3)c2n1` [Ia-06], with 17.3 nM; and `CCCCOc1nc(N)c2nc(O)n(Cc3ccc(Nc4ccc(CNCC(C)C)cc4)nc3)c2n1` [If-01], with 24 nM.
Still for that read-out and setting: then `CCCCOc1nc(N)c2nc(O)n(Cc3ccc(Oc4ccc(CN5CCN(C)CC5)cc4)c(F)c3)c2n1` [Ie-10], with 75 nM; and `CCCCOc1nc(N)c2nc(O)n(Cc3ccc(Oc4cccc(CNCCO)n4)cc3)c2n1` [Ic-05], with 44.2 nM; and `CCCCOc1nc(N)c2nc(O)n(Cc3ccc(Oc4cccc(CNCC(C)C)n4)cc3)c2n1` [Ic-01], with 10.1 nM.
Same read-out and setting: then `CCCCOc1nc(N)c2nc(O)n(Cc3ccc(Oc4ccc(CNC)cc4)nc3)c2n1` [Ib-02], with 29.6 nM; and `CCCCOc1nc(N)c2nc(O)n(Cc3ccc(Oc4ccc(CNC5CCC5)cc4)c(F)c3)c2n1` [Ie-02], with 19 nM.
For the molecule `CCCCOc1nc(N)c2nc(O)n(Cc3ccc(Oc4ccc(CO)cc4)cc3)c2n1` [Ia-01], the EC50 worked out at 506 nM.
Same read-out and setting: with `CCCCOc1nc(N)c2nc(O)n(Cc3ccc(Oc4ccc(CNCCS(C)(=O)=O)cc4)nc3)c2n1` [Ib-14] the figure was 18.9 nM.
As for `CCCCOc1nc(N)c2nc(O)n(Cc3ccc(Oc4ccc(CNCCOC)cc4)nc3)c2n1` [Ib-07], the EC50 turned out to be 5.81 nM.
On the same count and under the same terms, with `CCCCOc1nc(N)c2nc(O)n(Cc3ccc(Oc4cccc(CNCCOC)n4)cc3)c2n1` [Ic-06] the figure was 28 nM.
Still for that read-out and setting: then `CCCCOc1nc(N)c2nc(O)n(Cc3ccc(Oc4ccc(CNC5COC5)cc4)cc3)c2n1` [Ia-05], with 31 nM.
As for `CCCCOc1nc(N)c2nc(O)n(Cc3ccc(Oc4ccc(CNCc5ccccc5)cc4)cc3)c2n1` [Ia-08], the 50% effective concentration (EC50) turned out to be 24.3 nM.
Still for that read-out and setting: with `CCCCOc1nc(N)c2nc(O)n(Cc3ccc(Oc4ccc(CNCCOC)cc4)c(F)c3)c2n1` [Ie-05] the figure was 24 nM; with `CCCCOc1nc(N)c2nc(O)n(Cc3ccc(Oc4ccc(CNC5CC(F)(F)C5)cc4)nc3)c2n1` [Ib-10], 14.3 nM.
Still for that read-out and setting: with `CCCCOc1nc(N)c2nc(O)n(Cc3ccc(Oc4ccc(CNC(C)C)cc4)nc3)c2n1` [Ib-03] the figure was 7.5 nM; with `CCCCOc1nc(N)c2nc(O)n(Cc3ccc(Nc4ccc(CNC5CCC5)cc4)nc3)c2n1` [If-04], 2.5 nM; with `CCCCOc1nc(N)c2nc(O)n(Cc3ccc(Oc4ccc(CO)cc4)nc3)c2n1` [Ib-01], 104 nM.
The same measure, in the same setting: with `CCCCOc1nc(N)c2nc(O)n(Cc3ccc(Nc4ccc(CNC5CCOCC5)cc4)nc3)c2n1` [If-03] the figure was 14 nM.
Consider `CCCCOc1nc(N)c2nc(O)n(Cc3ccc(Oc4ccc(CNC5CC5)cc4)cc3)c2n1` [Ia-03], for which the EC50 amounted to 17.6 nM.
With `CCCCOc1nc(N)c2nc(O)n(Cc3ccc(Nc4ccc(CNCCO)cc4)nc3)c2n1` [If-02], the EC50 was 72 nM.
Same read-out and setting: then `CCCCOc1nc(N)c2nc(O)n(Cc3ccc(Oc4ccc(CNCC(C)C)cc4)nc3)c2n1` [Ib-12], with 3.77 nM; and `CCCCOc1nc(N)c2nc(O)n(Cc3ccc(Oc4ccc(CNCC(F)F)nc4)nc3)c2n1` [Id-06], with 100 nM.
Consider `CCCCOc1nc(N)c2nc(O)n(Cc3ccc(Oc4ccc(CNC5CC5)cc4)nc3)c2n1` [Ib-17], for which the 50% effective concentration (EC50) was determined as 5.11 nM.
Turning to `CCCCOc1nc(N)c2nc(O)n(Cc3ccc(Oc4ccc(CNC5CCC5)nc4)nc3)c2n1` [Id-02], the EC50 amounted to 25 nM.
On the same count and under the same terms, then `CCCCOc1nc(N)c2nc(O)n(Cc3ccc(Oc4ccc(CN5CCOCC5)nc4)nc3)c2n1` [Id-07], with 15 nM; and `CCCCOc1nc(N)c2nc(O)n(Cc3ccc(Oc4ccc(CNC5C6CC5C6)cc4)nc3)c2n1` (stereo not drawn) [Ib-09], with 5.91 nM; and `CCCCOc1nc(N)c2nc(O)n(Cc3ccc(Oc4ccc(CNCC(F)F)cc4)nc3)c2n1` [Ib-13], with 30.9 nM.
Still for that read-out and setting: then `CCCCOc1nc(N)c2nc(O)n(Cc3ccc(Oc4ccc(CNCCO)nc4)nc3)c2n1` [Id-05], with 12 nM; and `CCCCOc1nc(N)c2nc(O)n(Cc3ccc(Oc4ccc(CNC5CCCC5)cc4)nc3)c2n1` [Ib-11], with 8.14 nM.
On the same count and under the same terms, then `CCCCOc1nc(N)c2nc(O)n(Cc3ccc(Nc4ccc(CNCCS(C)(=O)=O)cc4)nc3)c2n1` [If-09], with 68 nM; and `CCCCOc1nc(N)c2nc(O)n(Cc3ccc(Nc4ccc(CNCC(C)(C)O)cc4)nc3)c2n1` [If-07], with 7.8 nM; and `CCCCOc1nc(N)c2nc(O)n(Cc3ccc(Oc4ccc(CN5CCOCC5)cc4)c(F)c3)c2n1` [Ie-09], with 250 nM.
As to `CCCCOc1nc(N)c2nc(O)n(Cc3ccc(Oc4ccc(CNC5CCOCC5)nc4)nc3)c2n1` [Id-03], the concentration for a half-maximal effect (EC50) came to 14 nM.
Still for that read-out and setting: with `CCCCOc1nc(N)c2nc(O)n(Cc3ccc(Oc4cccc(CNC5COC5)n4)cc3)c2n1` [Ic-03] the figure was 78 nM; with `CCCCOc1nc(N)c2nc(O)n(Cc3ccc(Oc4ccc(CN5CCN(C)CC5)nc4)nc3)c2n1` [Id-08], 21 nM; with `CCCCOc1nc(N)c2nc(O)n(Cc3ccc(Nc4ccc(CN5CCCC5)cc4)nc3)c2n1` [If-06], 3.8 nM.
Still for that read-out and setting: then `CCCCOc1nc(N)c2nc(O)n(Cc3ccc(Nc4ccc(CNCC(F)F)cc4)nc3)c2n1` [If-05], with 17 nM; and `CCCCOc1nc(N)c2nc(O)n(Cc3ccc(Oc4ccc(CNCCOC)nc4)nc3)c2n1` [Id-04], with 13 nM.

(Values after patent US10508115B2, “Toll-like receptor 7 (TLR7) agonists having heteroatom-linked aromatic moieties, conjugates thereof, and methods and uses therefor” (BRISTOL-MYERS SQUIBB COMPANY, priority 2017, dated 2019).)
